In data set [1] the target is T1, Ima1p (Saccharomyces cerevisiae, UniProt P53051). As to the kind of experiment: Substrate specificity of purified isomaltase. It counts as biochemical. Conditions: 100 mM substrate (pNPG 5 mM), pH 7, 30 °C; for Specific activities: citrate–potassium phosphate buffer.
For data set [2], the target named is T2, Ima2p (Saccharomyces cerevisiae, UniProt Q08295). As to the kind of experiment: Substrate specificity of purified isomaltase. The class given is biochemical. Conditions: 100 mM substrate (pNPG 5 mM), pH 7, 30 °C; for Specific activities: citrate–potassium phosphate buffer.
T2 sequence (Q08295 whole entry): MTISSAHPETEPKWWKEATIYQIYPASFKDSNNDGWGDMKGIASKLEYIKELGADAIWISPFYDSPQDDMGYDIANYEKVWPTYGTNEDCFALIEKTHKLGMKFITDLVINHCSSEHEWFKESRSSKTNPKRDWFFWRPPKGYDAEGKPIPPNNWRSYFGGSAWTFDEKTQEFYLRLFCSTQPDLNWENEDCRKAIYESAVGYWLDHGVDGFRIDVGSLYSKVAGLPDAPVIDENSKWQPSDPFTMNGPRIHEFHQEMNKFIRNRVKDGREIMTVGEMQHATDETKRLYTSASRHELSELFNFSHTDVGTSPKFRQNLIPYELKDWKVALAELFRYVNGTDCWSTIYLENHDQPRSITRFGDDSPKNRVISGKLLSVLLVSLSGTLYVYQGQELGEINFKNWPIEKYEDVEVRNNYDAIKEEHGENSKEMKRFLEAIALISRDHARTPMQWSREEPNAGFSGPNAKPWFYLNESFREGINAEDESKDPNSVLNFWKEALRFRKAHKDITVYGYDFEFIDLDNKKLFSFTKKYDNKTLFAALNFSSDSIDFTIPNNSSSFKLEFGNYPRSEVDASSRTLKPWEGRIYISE
Data set [3] has as its target T3, Ima3p (Saccharomyces cerevisiae, UniProt P0CW40). As to the kind of experiment: Substrate specificity of purified isomaltase. It counts as biochemical. Conditions: 100 mM substrate (pNPG 5 mM), pH 7, 30 °C; for Specific activities: citrate–potassium phosphate buffer.
In data set [4] the target is T4, Ima5p (Saccharomyces cerevisiae, UniProt P40884).
T4 sequence (P40884 1-581): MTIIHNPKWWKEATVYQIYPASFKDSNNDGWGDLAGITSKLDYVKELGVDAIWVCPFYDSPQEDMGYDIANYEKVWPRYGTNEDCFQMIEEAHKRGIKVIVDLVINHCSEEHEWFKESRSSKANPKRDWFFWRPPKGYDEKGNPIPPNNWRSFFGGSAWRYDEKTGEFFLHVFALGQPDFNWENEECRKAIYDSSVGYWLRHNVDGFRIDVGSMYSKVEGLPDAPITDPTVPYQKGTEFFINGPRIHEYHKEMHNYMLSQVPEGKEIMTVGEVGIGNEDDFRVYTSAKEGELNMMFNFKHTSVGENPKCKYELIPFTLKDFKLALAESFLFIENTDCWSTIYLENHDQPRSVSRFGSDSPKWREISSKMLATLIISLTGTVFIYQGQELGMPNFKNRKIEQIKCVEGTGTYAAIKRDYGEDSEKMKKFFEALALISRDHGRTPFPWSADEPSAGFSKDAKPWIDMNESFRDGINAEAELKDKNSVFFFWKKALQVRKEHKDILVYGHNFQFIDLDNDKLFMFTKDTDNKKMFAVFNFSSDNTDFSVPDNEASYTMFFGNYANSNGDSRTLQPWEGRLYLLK
As to the kind of experiment: Substrate specificity of purified isomaltase. The class given is biochemical. Conditions: 100 mM substrate (pNPG 5 mM), pH 7, 30 °C; for Specific activities: citrate–potassium phosphate buffer.

The target of a further data set is Ima3pL240P (Saccharomyces cerevisiae, UniProt P0CW40, L240P). As to the kind of experiment: Substrate specificity of purified isomaltase variant. It counts as biochemical. Conditions: 100 mM substrate (pNPG 5 mM), citrate–potassium phosphate buffer, pH 7, 30 °C.
Ima3pL240P, sequence (P0CW40 whole entry L240P): as the sequence (Q08295 whole entry) above, with A54T, Q279R counted along it
The next data set has as its target Ima3pR279Q (Saccharomyces cerevisiae, UniProt P0CW40, R279Q). The description is as above. The class given is biochemical. Conditions: 100 mM substrate (pNPG 5 mM), citrate–potassium phosphate buffer, pH 7, 30 °C.
The target of data set [5] is T1, Ima1p. As to the kind of experiment: Kinetic parameters for selected substrates. It counts as biochemical. Conditions: for Km: affinity constant for the substrate; for Km / kcat: mean ± SEM.
In data set [6] the target is T2, Ima2p. As to the kind of experiment: Kinetic parameters for selected substrates. The class given is biochemical. Conditions: for Km: affinity constant for the substrate; for Km / kcat: mean ± SEM.
Data set [7] addresses T3, Ima3p. As to the kind of experiment: Kinetic parameters for selected substrates. The class given is biochemical. Conditions: for Km: affinity constant for the substrate; for Km / kcat: mean ± SEM; for Ki: inhibition by high concentration of substrate.
Data set [8] addresses T4, Ima5p. As to the kind of experiment: Kinetic parameters for selected substrates. It counts as biochemical. Conditions: for Km: affinity constant for the substrate; for Km / kcat: mean ± SEM.
The nature of data set [9]: Thermostability assay: time-dependent heat inactivation, half-life. Conditions: pNPG 5 mM, mean ± 2 SEM. The class given is biochemical, Saccharomyces cerevisiae.
Data set [10] can be described thus: Melting temperature by differential scanning fluorimetry. It counts as physicochemical, Saccharomyces cerevisiae. Conditions: mean ± 2 SEM.
The mark [11] stands for this setting: inhibition by high concentration of substrate.

T1 sequence (P53051 whole entry): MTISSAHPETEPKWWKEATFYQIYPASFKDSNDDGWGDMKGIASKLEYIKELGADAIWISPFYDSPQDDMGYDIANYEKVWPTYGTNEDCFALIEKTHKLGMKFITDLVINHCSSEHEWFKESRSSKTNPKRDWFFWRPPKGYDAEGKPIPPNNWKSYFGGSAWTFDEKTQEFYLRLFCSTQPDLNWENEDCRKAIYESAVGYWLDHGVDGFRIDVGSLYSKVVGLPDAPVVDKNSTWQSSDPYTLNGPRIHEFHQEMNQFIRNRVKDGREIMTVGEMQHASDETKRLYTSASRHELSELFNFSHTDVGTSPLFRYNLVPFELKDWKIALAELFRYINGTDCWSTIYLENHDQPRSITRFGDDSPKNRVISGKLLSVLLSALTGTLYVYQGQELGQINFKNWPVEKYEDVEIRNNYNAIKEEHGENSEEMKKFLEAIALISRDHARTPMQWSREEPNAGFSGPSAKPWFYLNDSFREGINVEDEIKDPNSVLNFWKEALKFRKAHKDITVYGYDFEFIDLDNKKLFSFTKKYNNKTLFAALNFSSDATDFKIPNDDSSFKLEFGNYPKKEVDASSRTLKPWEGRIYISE

In the case of `OC[C@H]1O[C@H](OC[C@H]2O[C@H](O)[C@H](O)[C@@H](O)[C@@H]2O)[C@H](O)[C@@H](O)[C@@H]1O` [Isomaltose, O-α-D-Glucosyl-(1→6)-α-D-glucose], the Specific activities turned out to be 60 µmol/min/mg at Ima1p [1]; 54 µmol/min/mg at Ima2p [2]; 7.2 µmol/min/mg at Ima3p [3]; 65 µmol/min/mg at Ima5p [4]; 2.2 µmol/min/mg at Ima3pL240P; 29 µmol/min/mg at Ima3pR279Q. The “relative activity, velocity on isomaltose set to 100” value (“relative activity, velocity” for short) on Ima1p [1], at Ima2p [2], at Ima3p [3] and at Ima5p [4] was 100% in each case. The Km at Ima1p [5] stood at 17 ± 4 mM; on Ima2p [6] it was 17 ± 2 mM; at Ima3p [7], 37 ± 9 mM; at Ima5p [8], 13 ± 2 mM. The kcat at Ima1p [5] amounted to 103 ± 12 s⁻¹; at Ima2p [6] it was 97 ± 5 s⁻¹; on Ima3p [7], 15 ± 2 s⁻¹; at Ima5p [8], 101 ± 8 s⁻¹.
Take `OC[C@H]1O[C@H](OC[C@H]2O[C@H](OC[C@H]3OC(O)[C@H](O)[C@@H](O)[C@@H]3O)[C@H](O)[C@@H](O)[C@@H]2O)[C@H](O)[C@@H](O)[C@@H]1O` (stereo partly drawn) [Isomaltotriose, O-α-D-Glucosyl-(1→6)-α-D-glucosyl-(1→6)-D-glucose]: the Specific activities at Ima1p [1] is 7.9 µmol/min/mg; on Ima2p [2], 7.6 µmol/min/mg; on Ima3p [3], 0 µmol/min/mg; on Ima5p [4] it was 8.6 µmol/min/mg. Also, the “relative activity, velocity” value on Ima1p [1] was found to be 13%; at Ima2p [2], 14%; on Ima5p [4] it was 13%. The Ki entry at Ima1p [5] (setting [11]), at Ima2p [6] (setting [11]), at Ima3p [7] and on Ima5p [8] (setting [11]) was “None” throughout. The kcat on Ima1p [5] was 21 ± 4 s⁻¹; at Ima2p [6], 15 ± 2 s⁻¹; at Ima3p [7], 0 s⁻¹; on Ima5p [8], 18 ± 3 s⁻¹. The values for the Km on Ima2p [6] and on Ima5p [8] were 72 ± 16 mM and 83 ± 25 mM, respectively.
For the molecule `OC[C@H]1O[C@H](O[C@@H]2COC(O)(CO)[C@@H](O)[C@@H]2O)[C@H](O)[C@@H](O)[C@@H]1O` (stereo partly drawn) [Leucrose, O-α-D-Glucosyl-(1→5)-D-fructose], the Specific activities was 8.6 µmol/min/mg on Ima1p [1]; 8.6 µmol/min/mg at Ima2p [2]; 0 µmol/min/mg on Ima3p [3]; 1.1 µmol/min/mg on Ima5p [4]; 0 µmol/min/mg at Ima3pL240P; 1.5 µmol/min/mg on Ima3pR279Q. Besides, the “relative activity, velocity” value at Ima1p [1] is reported as 14%; on Ima2p [2], 16%; at Ima5p [4] it was 2%.
Take `OC[C@H]1O[C@H](OC[C@H]2OC(O)(CO)[C@@H](O)[C@@H]2O)[C@H](O)[C@@H](O)[C@@H]1O` (stereo partly drawn) [Palatinose, O-α-D-Glucosyl-(1→6)-D-fructose]: the Specific activities at Ima1p [1] was determined as 52 µmol/min/mg; at Ima2p [2], 74 µmol/min/mg; at Ima3p [3], 5 µmol/min/mg; on Ima5p [4], 39 µmol/min/mg; at Ima3pL240P, 2.8 µmol/min/mg; on Ima3pR279Q, 33 µmol/min/mg. Moreover, the “relative activity, velocity” value at Ima1p [1] is 87%; on Ima2p [2] it was 137%; at Ima3p [3], 69%; at Ima5p [4], 60%. Also, the Km at Ima1p [5] is 18 ± 4 mM; on Ima2p [6], 11 ± 2 mM; on Ima3p [7], 7 ± 0.7 mM; on Ima5p [8], 12 ± 3 mM. Further, the turnover number (kcat) came to 78 ± 8 s⁻¹ on Ima1p [5], 104 ± 6 s⁻¹ at Ima2p [6], 6.0 ± 0.1 s⁻¹ on Ima3p [7] and 56 ± 5 s⁻¹ on Ima5p [8]. The Ki result at Ima3p [7] is “None”.

B1: Ima3p: isomaltase from S. cerevisiae encoded by IMA3/YIL172C (identical IMA4), His-tagged, purified (protein, UniProt P0CW41 1-589, looked up)
Oligo-1,6-glucosidase IMA4: MTISSAHPETEPKWWKEATIYQIYPASFKDSNNDGWGDMKGIASKLEYIKELGTDAIWISPFYDSPQDDMGYDIANYEKVWPTYGTNEDCFALIEKTHKLGMKFITDLVINHCSSEHEWFKESRSSKTNPKRDWFFWRPPKGYDAEGKPIPPNNWRSYFGGSAWTFDEKTQEFYLRLFCSTQPDLNWENEDCRKAIYESAVGYWLDHGVDGFRIDVGSLYSKVAGLPDAPVIDENSKWQLSDPFTMNGPRIHEFHQEMNKFIRNRVKDGREIMTVGEMRHATDETKRLYTSASRHELSELFNFSHTDVGTSPKFRQNLIPYELKDWKVALAELFRYVNGTDCWSTIYLENHDQPRSITRFGDDSPKNRVISGKLLSVLLVSLSGTLYVYQGQELGEINFKNWPIEKYEDVEVRNNYDAIKEEHGENSKEMKRFLEAIALISRDHARTPMQWSREEPNAGFSGPNAKPWFYLNESFREGINAEDESKDPNSVLNFWKEALRFRKAHKDITVYGYDFEFIDLDNKKLFSFTKKYDNKTLFAALNFSSDSIDFTIPNNSSSFKLEFGNYPRSEVDASSRTLKPWEGRIYISE
modifications: His tag
Regarding B1, the t1/2 in data set [9] (37 °C) worked out at 23.2 ± 1.4 min; in data set [9] (40 °C), 7.6 ± 0.9 min; in [9] (42 °C), 2.9 ± 0.5 min. Further, the Tm in [10] (pH 6, DSF) stood at 47.0 ± 0.3 °C; in [10] (pH 7, DSF), 38.8 ± 0.5 °C; in data set [10] (pH 8, DSF) it was 29.9 ± 0.3 °C.

B2: Ima3p_R279Q: Ima3p variant with R279Q mutation (protein, UniProt P0CW40 1-589, looked up, variant R279Q)
Oligo-1,6-glucosidase IMA3: MTISSAHPETEPKWWKEATIYQIYPASFKDSNNDGWGDMKGIASKLEYIKELGTDAIWISPFYDSPQDDMGYDIANYEKVWPTYGTNEDCFALIEKTHKLGMKFITDLVINHCSSEHEWFKESRSSKTNPKRDWFFWRPPKGYDAEGKPIPPNNWRSYFGGSAWTFDEKTQEFYLRLFCSTQPDLNWENEDCRKAIYESAVGYWLDHGVDGFRIDVGSLYSKVAGLPDAPVIDENSKWQLSDPFTMNGPRIHEFHQEMNKFIRNRVKDGREIMTVGEMQHATDETKRLYTSASRHELSELFNFSHTDVGTSPKFRQNLIPYELKDWKVALAELFRYVNGTDCWSTIYLENHDQPRSITRFGDDSPKNRVISGKLLSVLLVSLSGTLYVYQGQELGEINFKNWPIEKYEDVEVRNNYDAIKEEHGENSKEMKRFLEAIALISRDHARTPMQWSREEPNAGFSGPNAKPWFYLNESFREGINAEDESKDPNSVLNFWKEALRFRKAHKDITVYGYDFEFIDLDNKKLFSFTKKYDNKTLFAALNFSSDSIDFTIPNNSSSFKLEFGNYPRSEVDASSRTLKPWEGRIYISE
As to B2, the t1/2 in data set [9] (37 °C) was 9.5 ± 1.7 min; in [9] (40 °C) it was 2.0 ± 0.3 min. The Tm in data set [10] (pH 7, DSF) worked out at 37.6 ± 0.8 °C.

B3: Ima5p: isomaltase from S. cerevisiae encoded by IMA5/YJL216C, His-tagged, purified (protein, UniProt P40884 1-581, looked up)
Oligo-1,6-glucosidase IMA5: MTIIHNPKWWKEATVYQIYPASFKDSNNDGWGDLAGITSKLDYVKELGVDAIWVCPFYDSPQEDMGYDIANYEKVWPRYGTNEDCFQMIEEAHKRGIKVIVDLVINHCSEEHEWFKESRSSKANPKRDWFFWRPPKGYDEKGNPIPPNNWRSFFGGSAWRYDEKTGEFFLHVFALGQPDFNWENEECRKAIYDSSVGYWLRHNVDGFRIDVGSMYSKVEGLPDAPITDPTVPYQKGTEFFINGPRIHEYHKEMHNYMLSQVPEGKEIMTVGEVGIGNEDDFRVYTSAKEGELNMMFNFKHTSVGENPKCKYELIPFTLKDFKLALAESFLFIENTDCWSTIYLENHDQPRSVSRFGSDSPKWREISSKMLATLIISLTGTVFIYQGQELGMPNFKNRKIEQIKCVEGTGTYAAIKRDYGEDSEKMKKFFEALALISRDHGRTPFPWSADEPSAGFSKDAKPWIDMNESFRDGINAEAELKDKNSVFFFWKKALQVRKEHKDILVYGHNFQFIDLDNDKLFMFTKDTDNKKMFAVFNFSSDNTDFSVPDNEASYTMFFGNYANSNGDSRTLQPWEGRLYLLK
modifications: His tag
B3: the t1/2 in data set [9] (37 °C) stood at 2.9 ± 0.4 min; in [9] (40 °C), 0.8 ± 0.1 min. Also, the Tm in data set [10] (pH 6, DSF) turned out to be 36.6 ± 0.4 °C; in [10] (pH 8, DSF) it was 35.7 ± 0.5 °C.

Source of the values: article PMC3953731 (FEBS Open Bio, 2014).
